The values below come from ChEMBL document CHEMBL1126925, “Nonprostanoid prostacyclin mimetics. 4. Derivatives of 2-[3-[2-(4,5-diphenyl-2-oxazolyl)ethyl]phenoxy]acetic acid substituted alpha to the oxazole ring” (J Med Chem, 1993).

This experiment is filed under the species Homo sapiens. In words: In vitro inhibition of ADP-induced aggregation of human platelets. It is filed as functional.
The IC50 is the midpoint of a concentration-inhibition curve. Take `O=C(O)COc1cccc(/C=C/c2nc(-c3ccccc3)c(-c3ccccc3)o2)c1`: the IC50 was determined as 13 µM.
In turn, `O=C(O)COc1cccc(CC(c2ccsc2)c2nc(-c3ccccc3)c(-c3ccccc3)o2)c1` (stereo unspecified) showed an IC50 of 20.7 µM.
Under `N#C/C(=C\c1cccc(OCC(=O)O)c1)c1nc(-c2ccccc2)c(-c2ccccc2)o1` stands 0.25 µM; under `NC(=O)C(Cc1cccc(OCC(=O)O)c1)c1nc(-c2ccccc2)c(-c2ccccc2)o1` (stereo unspecified), 3.75 µM.
Then `CC(C)(C)C(Cc1cccc(OCC(=O)O)c1)c1nc(-c2ccccc2)c(-c2ccccc2)o1` (stereo unspecified), with 3.66 µM.
Under `CC(C)OC(=O)C(Cc1cccc(OCC(=O)O)c1)c1nc(-c2ccccc2)c(-c2ccccc2)o1` (stereo unspecified) stands 1.22 µM.
The compound `CSC(Cc1cccc(OCC(=O)O)c1)c1nc(-c2ccccc2)c(-c2ccccc2)o1` (stereo unspecified) gave an IC50 of 1.3 µM.
Compound `O=C(O)COc1cccc(CC(c2ccccc2)c2nc(-c3ccccc3)c(-c3ccccc3)o2)c1` (stereo unspecified) displayed an IC50 of 23.2 µM.
Then `O=C(O)COc1cccc(CC(c2nc(-c3ccccc3)c(-c3ccccc3)o2)c2cccs2)c1` (stereo unspecified), with 33.2 µM; and `CC(C)C(Cc1cccc(OCC(=O)O)c1)c1nc(-c2ccccc2)c(-c2ccccc2)o1` (stereo unspecified), with 0.97 µM.
In turn, `COC(=O)C(Cc1cccc(OCC(=O)O)c1)c1nc(-c2ccccc2)c(-c2ccccc2)o1` (stereo unspecified) yielded an IC50 of 0.08 µM.
Then `O=C(O)COc1cccc(CC(C(=O)O)c2nc(-c3ccccc3)c(-c3ccccc3)o2)c1` (stereo unspecified), with 14 µM; and `CS(=O)(=O)C(Cc1cccc(OCC(=O)O)c1)c1nc(-c2ccccc2)c(-c2ccccc2)o1` (stereo unspecified), with 7.96 µM; and `O=C(O)COc1cccc(CC(CCO)c2nc(-c3ccccc3)c(-c3ccccc3)o2)c1` (stereo unspecified), with 2.92 µM.
As to `C=CCC(Cc1cccc(OCC(=O)O)c1)c1nc(-c2ccccc2)c(-c2ccccc2)o1` (stereo unspecified), the half-maximal inhibitory concentration (IC50) was determined as 0.57 µM.
Then `CNC(=O)/C(=C\c1cccc(OCC(=O)O)c1)c1nc(-c2ccccc2)c(-c2ccccc2)o1`, with 15 µM; and `CCOC(=O)/C(=C\c1cccc(OCC(=O)OC(C)(C)C)c1)c1nc(-c2ccccc2)c(-c2ccccc2)o1`, with over 60 µM; and `CCOC(=O)/C(=C\c1cccc(OCC(=O)O)c1OC)c1nc(-c2ccccc2)c(-c2ccccc2)o1`, with 0.13 µM.
Then `CCOC(=O)C(Cc1cccc(OCC(=O)O)c1OC)c1nc(-c2ccccc2)c(-c2ccccc2)o1` (stereo unspecified), with 1.18 µM; and `CCOC(=O)/C(=C\c1cccc(OCC(=O)O)c1)c1nc(-c2ccccc2)c(-c2ccccc2)o1`, with 0.36 µM; and `O=C(O)COc1cccc(CC(CCCCO)c2nc(-c3ccccc3)c(-c3ccccc3)o2)c1` (stereo unspecified), with 4.68 µM.
With `CN(C)C(=O)C(=Cc1cccc(OCC(=O)O)c1)c1nc(-c2ccccc2)c(-c2ccccc2)o1`, it took 12.2 µM to reach half-maximal inhibition (IC50).
Under `CCOC(=O)C(Cc1cccc(OCC(=O)O)c1)c1nc(-c2ccccc2)c(-c2ccccc2)o1` (stereo unspecified) stands 0.12 µM; under `O=C(O)COc1cccc(/C=C\c2nc(-c3ccccc3)c(-c3ccccc3)o2)c1`, 0.18 µM; under `CN(C)C(=O)C(Cc1cccc(OCC(=O)O)c1)c1nc(-c2ccccc2)c(-c2ccccc2)o1` (stereo unspecified), 3.56 µM.
Turning to `C=CCC(Cc1cccc(OCC(=O)O)c1)(C(=O)OCC)c1nc(-c2ccccc2)c(-c2ccccc2)o1` (stereo unspecified), the IC50 came to 7.68 µM.
For the compound `CCOC(=O)C(=Cc1cccc(OCC(=O)OC)c1)c1nc(-c2ccccc2)c(-c2ccccc2)o1` [listing 1 of 2 here], the IC50 amounted to 19.7 µM.
Take `N#CC(Cc1cccc(OCC(=O)O)c1)c1nc(-c2ccccc2)c(-c2ccccc2)o1` (stereo unspecified): half-maximal inhibition (IC50) required 0.44 µM.
Then `CNC(=O)C(Cc1cccc(OCC(=O)O)c1)c1nc(-c2ccccc2)c(-c2ccccc2)o1` (stereo unspecified), with 0.69 µM; and `C[S+]([O-])C(Cc1cccc(OCC(=O)O)c1)c1nc(-c2ccccc2)c(-c2ccccc2)o1` (stereo unspecified), with 7.08 µM; and `O=C(O)COc1cccc(CC(CO)c2nc(-c3ccccc3)c(-c3ccccc3)o2)c1` (stereo unspecified), with 9.31 µM.
For `O=C(O)COc1cccc(/C=C(\C(=O)O)c2nc(-c3ccccc3)c(-c3ccccc3)o2)c1`, the IC50 is 20.3 µM.
For `O=C(O)COc1cccc(CC(CCCO)c2nc(-c3ccccc3)c(-c3ccccc3)o2)c1` (stereo unspecified), the IC50 is 1.7 µM.
Then `CCOC(=O)C(=Cc1cccc(OCC(=O)OC)c1)c1nc(-c2ccccc2)c(-c2ccccc2)o1` [listing 2 of 2 here], with 2 µM; and `CCOP(=O)(OCC)C(Cc1cccc(OCC(=O)O)c1)c1nc(-c2ccccc2)c(-c2ccccc2)o1` (stereo unspecified), with 0.9 µM; and `CC#CCC(C)[C@H](O)/C=C/[C@@H]1[C@H]2C/C(=C/CCCC(=O)O)C[C@H]2C[C@H]1O` (stereo partly specified) [ILOPROST], with 0.002 µM.
